# In patent publication US20240368173A1, “TRICYCLIC GPR65 MODULATORS” (PATHIOS THERAPEUTICS LIMITED, priority 2021, published 2024):
# Target: human recombinant GPR65 (Homo sapiens, UniProt Q8IYL9)
# Test: Human GPR65 cAMP HTRF antagonist assay
# Format: cell-based
# Conditions: not given
# Method in brief: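 Antagonism measured as suppression of the cAMP rise when pH is dropped to 7.2 (control wells pH 7.9) in 1321N1 cells stably carrying human GPR65. Cells in KRH with 1 mM IBMX and 200 μM EDTA saw compound 30 min, then acid stimulation 30 min; HTRF cAMP detection, normalised, 4-parameter logistic IC50.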
# human recombinant GPR65, sequence (Q8IYL9 whole entry): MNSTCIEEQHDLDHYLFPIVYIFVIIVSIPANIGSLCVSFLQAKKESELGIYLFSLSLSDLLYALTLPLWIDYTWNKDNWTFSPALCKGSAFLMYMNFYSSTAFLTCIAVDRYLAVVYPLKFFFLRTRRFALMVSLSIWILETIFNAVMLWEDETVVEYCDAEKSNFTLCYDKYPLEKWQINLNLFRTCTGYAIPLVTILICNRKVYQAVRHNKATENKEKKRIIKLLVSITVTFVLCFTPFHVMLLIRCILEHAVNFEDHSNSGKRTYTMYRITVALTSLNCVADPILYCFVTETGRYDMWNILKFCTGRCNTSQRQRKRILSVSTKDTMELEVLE
row,Compound,IC50
1,"O=C(Nc1cc(Cl)c(-c2ccc(OCCC(F)(F)F)nc2)cc1F)N1[C@H]2CC[C@@H]1c1c[nH]c(=O)cc1C2 [Compound 332, (6S,9R)-N-(5-Chloro-2-fluoro-4-(6-(3,3,3-trifluoropropoxy)pyridin-3-yl)phenyl)-3-oxo-3,5,6,7,8,9-hexahydro-2H-6,9-epiminocyclohepta[c]pyridine-10-carboxamide]",< 0.5 µM
2,"O=C(Nc1cc(Cl)c(-c2ccc(OCC3CC3)nc2)cc1F)N1[C@H]2CC[C@@H]1c1c[nH]c(=O)cc1C2 [Compound 334, (6S,9R)-N-(5-Chloro-4-(6-(cyclopropylmethoxy)pyridin-3-yl)-2-fluorophenyl)-3-oxo-3,5,6,7,8,9-hexahydro-2H-6,9-epiminocyclohepta[c]pyridine-10-carboxamide]",< 0.5 µM
3,"Cc1cnccc1-c1cc(F)c(NC(=O)N2[C@H]3CC[C@@H]2c2n[nH]c(=O)cc2C3)cc1Cl [Compound 125, (6S,9R)-N-(5-Chloro-2-fluoro-4-(3-methylpyridin-4-yl)phenyl)-3-oxo-3,5,6,7,8,9-hexahydro-2H-6,9-epiminocyclohepta[c]pyridazine-10-carboxamide]",< 0.5 µM
4,"O=C(Nc1cc(Cl)c(C(F)(F)F)cc1F)N1[C@H]2CC[C@@H]1c1ccnnc1C2 [Compound 85, (5R,8S)-N-(5-Chloro-2-fluoro-4-(trifluoromethyl)phenyl)-6,7,8,9-tetrahydro-5H-5,8-epiminocyclohepta[c]pyridazine-10-carboxamide]",< 0.5 µM
5,"O=C(Nc1cc(Cl)c(-c2cncc(F)c2)cn1)N1[C@H]2CC[C@@H]1c1n[nH]c(=O)cc1C2 [Compound 229, (6S,9R)-N-(4-Chloro-5′-fluoro-[3,3′-bipyridin]-6-yl)-3-oxo-3,5,6,7,8,9-hexahydro-2H-6,9-epiminocyclohepta[c]pyridazine-10-carboxamide]",< 0.5 µM
6,"O=C(Nc1cc(Cl)c(F)cc1F)N1C2CCC1c1n[nH]c(=O)cc1C2 (racemic) [Compound 52, (±)-N-(5-Chloro-2,4-difluorophenyl)-3-oxo-3,5,6,7,8,9-hexahydro-2H-6,9-epiminocyclohepta[c]pyridazine-10-carboxamide]",< 0.5 µM
7,"COc1ccc(-c2cc(F)c(NC(=O)N3[C@H]4CC[C@@H]3c3c[nH]c(=O)cc3C4)cc2Cl)cn1 [Compound 184, (6S,9R)-N-(5-Chloro-2-fluoro-4-(6-methoxypyridin-3-yl)phenyl)-3-oxo-3,5,6,7,8,9-hexahydro-2H-6,9-epiminocyclohepta[c]pyridine-10-carboxamide]",< 0.5 µM
8,"O=C(Nc1cc(Cl)c(-c2ccc(N3CCOCC3)nc2)cc1F)N1[C@H]2CC[C@@H]1c1n[nH]c(=O)cc1C2 [Compound 340, (6S,9R)-N-(5-Chloro-2-fluoro-4-(6-morpholinopyridin-3-yl)phenyl)-3-oxo-3,5,6,7,8,9-hexahydro-2H-6,9-epiminocyclohepta[c]pyridazine-10-carboxamide]",< 0.5 µM
9,"O=C(Nc1ccc(C(F)(F)F)c(Br)c1)N1[C@H]2CC[C@@H]1c1n[nH]c(=O)cc1C2 [Compound 31, (6S,9R)-N-(3-Bromo-4-(trifluoromethyl)phenyl)-3-oxo-3,5,6,7,8,9-hexahydro-2H-6,9-epiminocyclohepta[c]pyridazine-10-carboxamide]",< 0.5 µM
10,"COc1cncc(-c2cc(F)c(NC(=O)N3[C@H]4CC[C@@H]3c3ccnc(F)c3C4)cc2Cl)c1 [Compound 248, (5R,8S)-N-(5-Chloro-2-fluoro-4-(5-methoxypyridin-3-yl)phenyl)-1-fluoro-6,7,8,9-tetrahydro-5H-5,8-epiminocyclohepta[c]pyridine-10-carboxamide]",< 0.5 µM
11,"O=C1Cc2ccc(-c3cc(F)c(NC(=O)N4[C@H]5CC[C@@H]4c4n[nH]c(=O)cc4C5)cc3Cl)cc2N1 [Compound 153, (6S,9R)-N-(5-Chloro-2-fluoro-4-(2-oxoindolin-6-yl)phenyl)-3-oxo-3,5,6,7,8,9-hexahydro-2H-6,9-epiminocyclohepta[c]pyridazine-10-carboxamide]",< 0.5 µM
12,"Cc1nc2cc(-c3cc(F)c(NC(=O)N4[C@H]5CC[C@@H]4c4n[nH]c(=O)cc4C5)cc3Cl)ccc2o1 [Compound 234, (6S,9R)-N-(5-Chloro-2-fluoro-4-(2-methylbenzo[d]oxazol-5-yl)phenyl)-3-oxo-3,5,6,7,8,9-hexahydro-2H-6,9-epiminocyclohepta[c]pyridazine-10-carboxamide]",< 0.5 µM
13,"O=C(Nc1cc(Cl)c(-c2ccc3conc3c2)cc1F)N1[C@H]2CC[C@@H]1c1n[nH]c(=O)cc1C2 [Compound 198, (6S,9R)-N-(4-(Benzo[c]isoxazol-6-yl)-5-chloro-2-fluorophenyl)-3-oxo-3,5,6,7,8,9-hexahydro-2H-6,9-epiminocyclohepta[c]pyridazine-10-carboxamide]",< 0.5 µM
14,"O=C(Nc1cc(Cl)c(-c2ccnc3[nH]ccc23)cc1F)N1[C@H]2CC[C@@H]1c1n[nH]c(=O)cc1C2 [Compound 148, (6S,9R)-N-(5-Chloro-2-fluoro-4-(1H-pyrrolo[2,3-b]345yridine-4-yl)phenyl)-3-oxo-3,5,6,7,8,9-hexahydro-2H-6,9-epiminocyclohepta[c]pyridazine-10-carboxamide]",0.5 to 5 µM
15,"N#Cc1nccc2c1C[C@@H]1CC[C@H]2N1C(=O)Nc1cc(Cl)c(Cl)cc1F [Compound 92, (5R,8S)-1-Cyano-N-(4,5-dichloro-2-fluorophenyl)-6,7,8,9-tetrahydro-5H-5,8-epiminocyclohepta[c]pyridine-10-carboxamide]",< 0.5 µM
16,"O=C(Nc1cc(-c2cncc(F)c2)c(C(F)(F)F)cc1F)N1[C@H]2CC[C@@H]1c1ccnc(F)c1C2 [Compound 256, (5R,8S)-1-fluoro-N-(2-fluoro-5-(5-fluoropyridin-3-yl)-4-(trifluoromethyl)phenyl)-6,7,8,9-tetrahydro-5H-5,8-epiminocyclohepta[c]pyridine-10-carboxamide]",< 0.5 µM
17,"CNc1cnc(F)c2c1[C@H]1CC[C@@H](C2)N1C(=O)Nc1cc(Cl)c(Cl)cc1F [Compound 159, (5R,8S)—N-(4,5-dichloro-2-fluorophenyl)-1-fluoro-4-(methylamino)-6,7,8,9-tetrahydro-5H-5,8-epiminocyclohepta[c]pyridine-10-carboxamide]",< 0.5 µM
18,"O=C(Nc1cc(Cl)c(-c2ccnc(OCC(F)(F)F)c2)cc1F)N1[C@H]2CC[C@@H]1c1c[nH]c(=O)cc1C2 [Compound 309, (6S,9R)-N-(5-Chloro-2-fluoro-4-(2-(2,2,2-trifluoroethoxy)pyridin-4-yl)phenyl)-3-oxo-3,5,6,7,8,9-hexahydro-2H-6,9-epiminocyclohepta[c]pyridine-10-carboxamide]",< 0.5 µM
19,"Cc1nn(C)c(C)c1-c1cc(F)c(NC(=O)N2[C@H]3CC[C@@H]2c2n[nH]c(=O)cc2C3)cc1Cl [Compound 150, (6S,9R)-N-(5-Chloro-2-fluoro-4-(1,3,5-trimethyl-1H-pyrazol-4-yl)phenyl)-3-oxo-3,5,6,7,8,9-hexahydro-2H-6,9-epiminocyclohepta[c]pyridazine-10-carboxamide]",0.5 to 5 µM
20,"O=C(Nc1cc(Cl)c(-c2cccc3nonc23)cc1F)N1[C@H]2CC[C@@H]1c1n[nH]c(=O)cc1C2 [Compound 210, (6S,9R)-N-(4-(Benzo[c][1,2,5]oxadiazol-4-yl)-5-chloro-2-fluorophenyl)-3-oxo-3,5,6,7,8,9-hexahydro-2H-6,9-epiminocyclohepta[c]pyridazine-10-carboxamide]",< 0.5 µM
21,"CO[C@H]1C[C@@H](Oc2ccc(-c3cc(F)c(NC(=O)N4[C@H]5CC[C@@H]4c4n[nH]c(=O)cc4C5)cc3Cl)cn2)C1 [Compound 304, (6S,9R)-N-(5-Chloro-2-fluoro-4-(6-((1s,3S)-3-methoxycyclobutoxy)pyridin-3-yl)phenyl)-3-oxo-3,5,6,7,8,9-hexahydro-2H-6,9-epiminocyclohepta[c]pyridazine-10-carboxamide]",< 0.5 µM
22,"O=C(Nc1cc(Cl)c(-c2ccccc2)cc1F)N1[C@H]2CC[C@@H]1c1n[nH]c(=O)cc1C2 [Compound 113, (6S,9R)-N-(2-Chloro-5-fluoro-[1,1′-biphenyl]-4-yl)-3-oxo-3,5,6,7,8,9-hexahydro-2H-6,9-epiminocyclohepta[c]pyridazine-10-carboxamide]",< 0.5 µM
23,"O=C(Nc1cc(Cl)c(C(F)(F)F)cc1F)N1C2CCC1[C@H](F)c1c2ccnc1F (mixture of isomers) [Compound 157, (±)-(9R)—N-(5-Chloro-2-fluoro-4-(trifluoromethyl)phenyl)-1,9-difluoro-6,7,8,9-tetrahydro-5H-5,8-epiminocyclohepta[c]pyridine-10-carboxamide]",< 0.5 µM
24,"O=C(Nc1ccc(C2COC2)cc1)N1[C@H]2CC[C@@H]1c1ccnc(F)c1C2 [Compound 58, (5R,8S)-1-Fluoro-N-(4-(oxetan-3-yl)phenyl)-6,7,8,9-tetrahydro-5H-5,8-epiminocyclohepta[c]pyridine-10-carboxamide]",0.5 to 5 µM

# Same assay, conditions: 1321N1-hrGPR65 cells, cAMP HTRF, assay pH 7.2; read-out: hGPR65 IC50 (Activity of selected compounds according to the invention)
row,Compound,IC50
1,"N#Cc1cnccc1-c1cc(F)c(NC(=O)N2[C@H]3CC[C@@H]2c2n[nH]c(=O)cc2C3)cc1Cl [Compound 179, (6S,9R)-N-(5-Chloro-4-(3-cyanopyridin-4-yl)-2-fluorophenyl)-3-oxo-3,5,6,7,8,9-hexahydro-2H-6,9-epiminocyclohepta[c]pyridazine-10-carboxamide]",0.5 to 5 µM
2,"O=C(Nc1ccc(C2CCOCC2)cc1)N1[C@H]2CC[C@@H]1c1ccnc(F)c1C2 [Compound 57, (5R,8S)-1-Fluoro-N-(4-(tetrahydro-2H-pyran-4-yl)phenyl)-6,7,8,9-tetrahydro-5H-5,8-epiminocyclohepta[c]pyridine-10-carboxamide]",0.5 to 5 µM
3,"O=C(Nc1cc(Cl)c(-c2cn[nH]c2)cc1F)N1[C@H]2CC[C@@H]1c1n[nH]c(=O)cc1C2 [Compound 119, (6S,9R)-N-(5-Chloro-2-fluoro-4-(1H-pyrazol-4-yl)phenyl)-3-oxo-3,5,6,7,8,9-hexahydro-2H-6,9-epiminocyclohepta[c]pyridazine-10-carboxamide]",> 5 µM
